Assay results from ChEMBL document CHEMBL2331176, “1,5-Diphenylpenta-2,4-dien-1-ones as potent and selective monoamine oxidase-B inhibitors” (Eur J Med Chem, 2013).

Experiments:
Homo sapiens = species on record: Homo sapiens; assay: Selectivity index, ratio of IC50 for recombinant human MAO-A expressed in baculovirus infected BT1-TN-5B1-4 cells to recombinant human MAO-B expressed in baculovirus infected BT1-TN-5B1-4 cells
[1] = target: T1, Amine oxidase [flavin-containing] B (Homo sapiens, UniProt P27338); assay: biochemical; assay type: cell-based
T1 sequence (P27338 whole entry): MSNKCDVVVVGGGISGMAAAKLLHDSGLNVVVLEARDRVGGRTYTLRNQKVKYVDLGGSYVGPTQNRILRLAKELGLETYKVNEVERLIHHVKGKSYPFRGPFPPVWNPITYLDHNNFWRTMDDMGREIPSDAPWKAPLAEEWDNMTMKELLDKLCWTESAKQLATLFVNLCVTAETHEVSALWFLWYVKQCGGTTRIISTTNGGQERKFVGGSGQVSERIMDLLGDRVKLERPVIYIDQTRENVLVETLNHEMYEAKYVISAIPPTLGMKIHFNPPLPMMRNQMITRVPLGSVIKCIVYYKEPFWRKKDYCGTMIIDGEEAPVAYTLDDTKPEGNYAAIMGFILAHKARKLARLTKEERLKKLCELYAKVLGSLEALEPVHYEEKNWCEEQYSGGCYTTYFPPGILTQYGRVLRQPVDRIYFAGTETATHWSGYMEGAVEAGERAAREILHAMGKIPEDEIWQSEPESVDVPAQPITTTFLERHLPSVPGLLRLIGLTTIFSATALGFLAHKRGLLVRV
Description: Inhibition of recombinant human MAO-B expressed in baculovirus infected BT1-TN-5B1-4 cells assessed as inhibition of production of hydrogen peroxide from p-tyramine after 15 mins by Amplex Red assay

[2] = target: T2, Amine oxidase [flavin-containing] A (Homo sapiens, UniProt P21397); assay: Inhibition of recombinant human MAO-A expressed in baculovirus infected BT1-TN-5B1-4 cells assessed as inhibition of production of hydrogen peroxide from p-tyramine at 100 uM after 15 mins by Amplex Red assay; settings: 0.25 h; for inhibition (INH): 100 µM
T2 sequence (P21397 whole entry): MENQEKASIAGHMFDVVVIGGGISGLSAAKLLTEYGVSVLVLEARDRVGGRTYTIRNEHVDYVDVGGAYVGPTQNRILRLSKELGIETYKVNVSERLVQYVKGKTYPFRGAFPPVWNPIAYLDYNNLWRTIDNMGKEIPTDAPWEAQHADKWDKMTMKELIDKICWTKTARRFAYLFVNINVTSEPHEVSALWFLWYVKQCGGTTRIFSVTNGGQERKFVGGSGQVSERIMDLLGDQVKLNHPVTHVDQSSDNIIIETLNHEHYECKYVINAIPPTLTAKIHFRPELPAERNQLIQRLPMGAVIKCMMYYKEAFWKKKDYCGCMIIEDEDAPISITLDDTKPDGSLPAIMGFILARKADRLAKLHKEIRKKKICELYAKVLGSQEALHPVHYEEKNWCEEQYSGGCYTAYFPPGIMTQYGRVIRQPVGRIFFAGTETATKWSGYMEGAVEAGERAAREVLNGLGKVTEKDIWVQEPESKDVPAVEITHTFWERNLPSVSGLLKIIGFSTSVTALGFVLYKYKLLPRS

[3] = target: T2, Amine oxidase [flavin-containing] A; assay: Inhibition of recombinant human MAO-A expressed in baculovirus infected BT1-TN-5B1-4 cells assessed as inhibition of production of hydrogen peroxide from p-tyramine after 15 mins by Amplex Red assay
[4] = target: T1, Amine oxidase [flavin-containing] B; assay: Inhibition of recombinant human MAO-B expressed in baculovirus infected BT1-TN-5B1-4 cells assessed as inhibition of production of hydrogen peroxide from p-tyramine at 100 uM after 15 mins by Amplex Red assay; settings: 0.25 h; for inhibition (INH): 100 µM
[5] = target: T1, Amine oxidase [flavin-containing] B; assay: Inhibition of recombinant human MAO-B expressed in baculovirus infected BT1-TN-5B1-4 cells assessed as inhibition of production of hydrogen peroxide from p-tyramine at 1 mM after 15 mins by Amplex Red assay; settings: 0.25 h, 1000 µM

SMILES | IC50 [1] [nM] | inhibition (INH) [2] | Ratio IC50 (Homo sapiens) | also measured
COc1ccc(/C=C/C=C/C(=O)c2ccccc2O)cc1 | 1810 | – | > 55 | inhibition at 100 µM [2]: 40%
COc1cc(/C=C/C=C/C(=O)c2ccccc2O)ccc1O | 502 | – | 3.1 | IC50 [3]: 1560 nM
COc1ccc(/C=C/C=C/C(=O)c2ccccc2O)cc1OC | 14600 | – | > 6.8 | inhibition at 100 µM [2]: 40%
COc1ccc(/C=C/C(O)=C/C(=O)c2c(O)cccc2OC)cc1OC | – | – | – | inhibition (INH) [4]: Not Active; inhibition at 100 µM [2]: 40%
O=C(/C=C/C=C/c1ccccc1)c1cc(F)ccc1O | 75.8 | Not Active | > 1320 | –
O=C(/C=C/C=C/c1ccc(Cl)cc1)c1ccc(O)cc1O | 11.3 | – | 1350 | IC50 [3]: 15400 nM
COc1cc(/C=C/C=C/C(=O)c2c(O)cccc2OC)ccc1O | 486 | – | 2.1 | IC50 [3]: 1030 nM
O=C(/C=C/c1ccccc1)c1cc(F)ccc1O | 668 | – | > 150 | inhibition at 100 µM [2]: 40%
O=C(/C=C(O)/C=C/c1ccc(O)cc1)c1ccccc1O | 26.5 | – | 57 | IC50 [3]: 1520 nM
O=C(/C=C/C=C/c1ccccc1)c1ccccc1O | 106 | Not Active | > 948 | –
O=C(/C=C/C=C/c1ccc([N+](=O)[O-])cc1)c1cc(Cl)ccc1O | 1080 | Not Active | > 93 | –
O=C(/C=C/C=C/c1ccccc1)c1cc(Cl)ccc1O | 54.8 | Not Active | > 1830 | –
O=C(NCCN1CCOCC1)c1ccc(Cl)cc1 [MOCLOBEMIDE] | – | – | – | inhibition (INH) [5]: Not Active
O=C(/C=C/C=C/c1ccc(Cl)cc1)c1ccccc1O | 860 | – | 44 | IC50 [3]: 37700 nM
COc1ccc(/C=C/C=C/C(=O)c2c(O)cccc2OC)cc1OC | – | – | – | inhibition (INH) [4]: Not Active; inhibition at 100 µM [2]: 40%
COc1ccc(/C=C/C=C/C(=O)c2cc(F)ccc2O)cc1 | 726 | Not Active | > 138 | –
O=C(/C=C/C=C/c1ccc([N+](=O)[O-])cc1)c1ccccc1O | 160 | Not Active | > 624 | –
O=C(/C=C(O)/C=C/c1ccc([N+](=O)[O-])cc1)c1ccccc1O | 2670 | Not Active | > 37 | –
COc1cc(/C=C/C(O)=C/C(=O)c2c(O)cccc2OC)ccc1O | 1680 | – | 2.2 | IC50 [3]: 3760 nM

Now from value to compound, other results behind:

IC50 [1] [nM] | inhibition (INH) [2] | SMILES | Ratio IC50 (Homo sapiens) | also measured
4.51 | Not Active | COc1ccc(C(=O)/C=C/C=C/c2ccc(Cl)cc2)c(O)c1 | > 22200 | –
969 | – | COc1cc(/C=C/C=C/C(=O)c2c(O)cccc2O)ccc1O | 1.5 | IC50 [3]: 1430 nM
3770 | Not Active | Cc1ccc(/C=C/C(O)=C/C(=O)c2ccccc2O)cc1 | > 27 | –
1160 | Not Active | O=C(/C=C(O)/C=C/c1ccccc1)c1ccccc1O | > 86 | –
153 | Not Active | COc1ccc(/C=C/C=C/C(=O)c2cc(Cl)ccc2O)cc1 | > 653 | –
50.4 | Not Active | O=C(/C=C(O)/C=C/c1ccccc1)c1cc(F)ccc1O | > 1980 | –
654 | – | O=C(/C=C(O)/C=C/c1ccc(O)c(O)c1)c1ccccc1O | 0.66 | IC50 [3]: 431 nM
– | Not Active | O=C(/C=C(O)/C=C/c1ccc(Cl)cc1)c1ccccc1O | – | inhibition at 100 µM [4]: 40%
– | Not Active | COc1ccc(/C=C/C(O)=C/C(=O)c2ccccc2O)cc1OC | – | inhibition (INH) [4]: Not Active
1460 | Not Active | O=C(/C=C/C=C/c1ccc(Cl)cc1)c1cc(Cl)ccc1O | > 68 | –
1450 | – | COc1ccc(/C=C/C=C/C(=O)c2c(O)cccc2O)cc1OC | 17 | IC50 [3]: 25200 nM
– | Not Active | COc1ccc(/C=C/C(O)=C/C(=O)c2ccccc2O)cc1 | – | inhibition at 100 µM [4]: 40%
– | Not Active | O=C(/C=C(O)/C=C/c1ccc(Cl)cc1)c1cc(Cl)ccc1O | – | inhibition (INH) [4]: Not Active
